Experimental data: patent US12240812B2, “Compound for inhibiting PGE2/EP4 signaling transduction inhibiting, preparation method therefor, and medical uses thereof” (Keythera (Suzhou) Pharmaceuticals Co. Ltd., priority 2019, dated 2025)

These compounds were tested on PGE2/EP4 signal transduction in MCF7 cells (assay: Determination of MCF7 cAMP (PGE2-stimulated, HTRF)). Details: Homo sapiens; MCF7 cells, 10 nM PGE2 stimulation, cAMP HTRF; read-out: MCF7 cAMP IC50.
Format: cell-based
Description: • a) MCF7 cells (ATCC, 6000 cells/well/40 μl) were inoculated into a 384-well cell culture plate containing a medium (DMEM containing 10% FBS and 1×PS), and incubated overnight at 37° C. and 5% CO2. • b) The medium was removed, 40 μl/well of serum-free medium was added, and the cells were incubated at 37° C. and 5% CO2 for 5 hours. • c) The medium was replaced with 18 μL/well of HBSS buffer (Hepes 20 mM, 0.1% BSA, 500 μM IBMX). • d) The compound in DMSO was diluted (1/5 dilution, 9+0 dose). • e) 2 μL of the compound in d) was added to 98 μL of HBSS buffer. • f) 1 μL/well of the diluted compound in e) was added to the cells, with a final starting concentration of 1 μM, and the cells were incubated at 37° C. for 1 hour. • g) The cells were stimulated with 1 μL/well of PGE2 (10 mM DMSO stock solution) (final concentration: 10 nM, and DMSO final concentration: 0.2%), and incubated at 37° C. for 30 minutes. • h) After the incubation, 10 μL/well of cAMP-d2 and 10 μL/well of anti-cAMP were added, RT 1 h. • i) HTRF signals (665 nm/615 nm) were read on Envision. Data Analysis: • High control: 1 μM E7046 • Low control: DMSO • Background: 30 μL/well of lysis buffer+10 μL/well of anti-cAMP • Analytical data: original date—background Inhibition %: 100−100×(high control−analytical data)/(high control−low control)

Going from `CC(NC(=O)c1cccc2ccn(Cc3cc4ccccc4o3)c12)C12CC(C(=O)O)(C1)C2` (racemic) [Compound 20, 3-(1-(1-(Benzofuran-2-ylmethyl)-1H-indole-7-carboxamido)ethyl)bicyclo[1.1.1]pentane-1-carboxylic acid] to `C[C@H](NC(=O)c1cccc2ccn(Cc3cc4ccccc4o3)c12)C12CC(C(=O)O)(C1)C2` [Compound 20-5, (S)-3-(1-(1-(benzofuran-2-ylmethyl)-1H-indole-7-carboxamido)ethyl)bicyclo[1.1.1]pentane-1-carboxylic acid], the IC50 falls from 34 nM to 14 nM (2.4-fold). The second is the more potent here.

Going from `CC(NC(=O)c1cncc2ccn(Cc3cc4ccccc4o3)c12)C12CC(C(=O)O)(C1)C2` (racemic) [Compound 26, 3-(1-(1-(Benzofuran-2-ylmethyl)-1H-pyrrolo[3,2-c]pyridine-7-carboxamido)ethyl)bicyclo[1.1.1]pentane-1-carboxylic acid] to `C[C@H](NC(=O)c1cncc2ccn(Cc3cc4ccccc4o3)c12)C12CC(C(=O)O)(C1)C2` [Compound 26-1, (S)-3-(1-(1-(benzofuran-2-ylmethyl)-1H-pyrrolo[3,2-c]pyridine-7-carboxamido)ethyl)bicyclo[1.1.1]pentane-1-carboxylic acid], the IC50 falls from 60 nM to 30 nM (2-fold).

`O=C(NC1(C23CC(C(=O)O)(C2)C3)CC1)c1cccc2ccn(Cc3ccc4ccccc4n3)c12` [Compound 3, 3-(1-(1-(Quinolin-2-ylmethyl)-1H-indole-7-carboxamido)cyclopropyl)bicyclo[1.1.1]pentane-1-carboxylic acid] and `O=C(NC1(C23CC(C(=O)O)(C2)C3)CC1)c1cccc2ccn(Cc3nc4ccccc4o3)c12` [Compound 23, 3-(1-(1-(Benzo[d]oxazol-2-ylmethyl)-1H-indole-7-carboxamido)cyclopropyl)bicyclo[1.1.1]pentane-1-carboxylic acid] are within 1.5-fold of each other in IC50: 7.8 nM for the first, 8 nM for the second.

First: O=C(NC1(C23CC(C(=O)O)(C2)C3)CC1)c1cccc2ccn(Cc3ccc(Cl)cc3)c12 [Compound 4, 3-(1-(1-(4-Chlorobenzyl)-1H-indole-7-carboxamido)cyclopropyl)bicyclo[1.1.1]pentane-1-carboxylic acid]
Second: O=C(NC1(C23CC(C(=O)O)(C2)C3)CC1)c1cccc2ccn(Cc3ccc(-c4ccccc4)nc3)c12 [Compound 5, 3-(1-(1-((6-Phenylpyridin-3-yl)methyl)-1H-indole-7-carboxamido)cyclopropyl)bicyclo[1.1.1]pentane-1-carboxylic acid]
The IC50 of the first is 11-fold higher: 61 nM for the first, 5.5 nM for the second. The second is the more potent here.

Going from `O=C(NC1(C23CC(C(=O)O)(C2)C3)CC1)c1cc(Cl)cc2ccn(Cc3ccc(C(F)(F)F)cc3)c12` [Compound 8, 3-(1-(5-Chloro-1-(4-(trifluoromethyl)benzyl)-1H-indole-7-carboxamido)cyclopropyl)bicyclo[1.1.1]pentane-1-carboxylic acid] to `O=C(NC1(C23CC(C(=O)O)(C2)C3)CC1)c1cncc2ccn(Cc3cc4cc(C(F)(F)F)ccc4o3)c12` [Compound 28, 3-(1-(1-((5-(Trifluoromethyl)benzofuran-2-yl)methyl)-1H-pyrrolo[3,2-c]pyridine-7-carboxamido)cyclopropyl)bicyclo[1.1.1] pentane-1-carboxylic acid], the IC50 falls from 2.9 nM to 1.5 nM (1.9-fold). The second is the more potent here.

Going from `O=C(NC1(C23CC(C(=O)O)(C2)C3)CC1)c1cccc2ccn(Cc3ccc(N4CCOCC4)cn3)c12` [Compound 10, 3-(1-(1-((5-Morpholinopyridin-2-yl)methyl)-1H-indole-7-carboxamido)cyclopropyl)bicyclo[1.1.1]pentane-1-carboxylic acid] to `O=C(NC1(C23CC(C(=O)O)(C2)C3)CC1)c1cccc2ccn(Cc3ccc(N4CCCC(O)C4)cn3)c12` (centres unmarked) [Compound 17, 3-(1-(1-((5-(3-Hydroxypiperidin-1-yl)pyridin-2-yl)methyl)-1H-indole-7-carboxamido)cyclopropyl)bicyclo[1.1.1]pentane-1-carboxylic acid], the IC50 falls from 72 nM to 35 nM (2.1-fold). The second is the more potent here.

Compared with `O=C(NC1(C23CC(C(=O)O)(C2)C3)CC1)c1cccc2ccn(Cc3ccc(-c4ccccn4)cn3)c12` [Compound 11, 3-(1-(1-([2,3′-Bipyridin]-6′-ylmethyl)-1H-indole-7-carboxamido)cyclopropyl)bicyclo[1.1.1]pentane-1-carboxylic acid], `O=C(NC1(C23CC(C(=O)O)(C2)C3)CC1)c1cccc2ccn(Cc3ccc(-c4cccnc4)cn3)c12` [Compound 12, 3-(1-(1-([3,3′-Bipyridin]-6-ylmethyl)-1H-indole-7-carboxamido)cyclopropyl)bicyclo[1.1.1]pentane-1-carboxylic acid] is 2.1-fold higher in IC50: 30 nM for the first, 62.9 nM for the second. The first is the more potent here.

`O=C(NC1(C23CC(C(=O)O)(C2)C3)CC1)c1cccc2ccn(Cc3ccc(-c4ccncc4)cn3)c12` [Compound 13, 3-(1-(1-([3,4′-Bipyridin]-6-ylmethyl)-1H-indole-7-carboxamido)cyclopropyl)bicyclo[1.1.1]pentane-1-carboxylic acid] and `O=C(NC1(C23CC(C(=O)O)(C2)C3)CC1)c1cccc2ccn(Cc3ccc(-c4cn[nH]c4)cn3)c12` [Compound 15, 3-(1-(1-((5-(1H-Pyrazol-4-yl)pyridin-2-yl)methyl)-1H-indole-7-carboxamido)cyclopropyl) bicyclo[1.1.1]pentane-1-carboxylic acid] are within 1.5-fold of each other in IC50: 11.5 nM for the first, 14.5 nM for the second.

Compared with `Cn1cc(-c2ccc(Cn3ccc4cccc(C(=O)NC5(C67CC(C(=O)O)(C6)C7)CC5)c43)nc2)cn1` [Compound 14, 3-(1-(1-((5-(1-Methyl-1H-pyrazol-4-yl)pyridin-2-yl)methyl)-1H-indole-7-carboxamido)cyclopropyl)bicyclo[1.1.1]pentane-1-carboxylic acid], `O=C(NC1(C23CC(C(=O)O)(C2)C3)CC1)c1cccc2ccn(Cc3ccc(-c4cnn(CCCO)c4)cn3)c12` [Compound 16, 3-(1-(1-((5-(1-(3-Hydroxypropyl)-1H-pyrazol-4-yl)pyridin-2-yl)methyl)-1H-indole-7-carboxamido)cyclopropyl)bicyclo[1.1.1]pentane-1-carboxylic acid] is 8.8-fold higher in IC50: 24.4 nM for the first, 215 nM for the second.

Compared with `O=C(NC1(C23CC(C(=O)O)(C2)C3)CC1)c1cccc2ccn(Cc3ccc(C4CC4)cn3)c12` [Compound 18, 3-(1-(1-((5-Cyclopropylpyridin-2-yl)methyl)-1H-indole-7-carboxamido)cyclopropyl)bicyclo[1.1.1]pentane-1-carboxylic acid], `O=C(NC1(C23CC(C(=O)O)(C2)C3)CC1)c1cccc2ccn(Cc3ccc(-c4ccccc4CO)cn3)c12` [Compound 19, 3-(1-(1-((5-(2-(Hydroxymethyl)phenyl)pyridin-2-yl)methyl)-1H-indole-7-carboxamido)cyclopropyl)bicyclo[1.1.1]pentane-1-carboxylic acid] is 1.7-fold higher in IC50: 62.9 nM for the first, 106 nM for the second. The first is the more potent here.

Going from `C[C@@H](NC(=O)c1cccc2ccn(Cc3cc4ccccc4o3)c12)C12CC(C(=O)O)(C1)C2` [Compound 20-6, (R)-3-(1-(1-(benzofuran-2-ylmethyl)-1H-indole-7-carboxamido)ethyl)bicyclo[1.1.1]pentane-1-carboxylic acid] to `C[C@@H](NC(=O)c1cncc2ccn(Cc3cc4ccccc4o3)c12)C12CC(C(=O)O)(C1)C2` [Compound 26-2, (R)-3-(1-(1-(benzofuran-2-ylmethyl)-1H-pyrrolo[3,2-c]pyridine-7-carboxamido)ethyl)bicyclo[1.1.1]pentane-1-carboxylic acid], the IC50 rises from 78 nM to greater than 100 nM.

First: O=C(NC1(C23CC(C(=O)O)(C2)C3)CC1)c1cccc2ccn(Cc3cc4ccc(F)cc4o3)c12 [Compound 22, 3-(1-(1-((6-Fluorobenzofuran-2-yl)methyl)-1H-indole-7-carboxamido)cyclopropyl)bicyclo[1.1.1]pentane-1-carboxylic acid]
Second: O=C(NC1(C23CC(C(=O)O)(C2)C3)CC1)c1cc(F)cc2ccn(Cc3cc4ccccc4o3)c12 [Compound 32]
The IC50 of the first is 1.9-fold higher: 1.4 nM for the first, 0.75 nM for the second. The second is the more potent here.

First: O=C(NC1(C23CC(C(=O)O)(C2)C3)CC1)c1cccc2ccn(Cc3nc4ccccc4s3)c12 [Compound 24, 3-(1-(1-(Benzo[d]thiazol-2-ylmethyl)-1H-indole-7-carboxamido)cyclopropyl)bicyclo[1.1.1]pentane-1-carboxylic acid]
Second: [2H]C(c1cc2ccccc2o1)n1ccc2cccc(C(=O)NC3(C45CC(C(=O)O)(C4)C5)CC3)c21 (centres unmarked) [Compound 29, 3-(1-(1-(Benzofuran-2-ylmethyl-d)-1H-indole-7-carboxamido)cyclopropyl)bicyclo[1.1.1]pentane-1-carboxylic acid]
The IC50 of the first is 8-fold higher: 12 nM for the first, 1.5 nM for the second. The second is the more potent here.

`O=C(NC1(C23CC(C(=O)O)(C2)C3)CC1)c1cncc2ccn(Cc3cc4cc(F)ccc4o3)c12` [Compound 27, 3-(1-(1-((5-Fluorobenzofuran-2-yl)methyl)-1H-pyrrolo[3,2-c]pyridine-7-carboxamido)cyclopropyl)bicyclo[1.1.1]pentane-1-carboxylic acid] and `[2H]C([2H])(c1cc2ccccc2o1)n1ccc2cccc(C(=O)NC3(C45CC(C(=O)O)(C4)C5)CC3)c21` [Compound 30, 3-(1-(1-(1-Benzofuran-2-ylmethyl-d2)-1H-indole-7-carboxamido)cyclopropyl)bicyclo[1.1.1]pentane-1-carboxylic acid] are within 1.5-fold of each other in IC50: 1.2 nM for the first, 1.1 nM for the second.

`[2H]C1([2H])C([2H])([2H])C1(NC(=O)c1cccc2ccn(Cc3cc4ccccc4o3)c12)C12CC(C(=O)O)(C1)C2` [Compound 31] gave an IC50 of 1.2 nM.
